Measured values reported in the supplement of paper PMC10627819.

Experiments:
S. aureus DSM 20231 = experiment: Bliss interaction score (quartile over a dose matrix) (fitness difference); higher = more antagonism (negative = synergy)
Procedure, shortened: (§1)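 Fitness was OD595 at entry into stationary phase divided by the plate's robust no-drug mean and capped at 1; single-drug fitness was inferred from combination data. The Bliss score is observed minus expected (product) fitness, summarised by quartiles over technical, biological and donor/recipient replicates.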

B. subtilis 168 = experiment: as above
Procedure, shortened: as §1

S. aureus Newman = experiment: as above
Procedure, shortened: as §1

S. pneumoniae D39V [1] = experiment: as above
Procedure, shortened: as §1

S. pneumoniae D39V [2] = experiment: fitness (endpoint OD595 vs no drug) (fraction); higher = more growth
Procedure, shortened: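 At 37 °C, bacteria in TSB, LB Lennox or CY were grown in 384-well plates from a starting OD595 of 0.01. OD595 was measured every 30 min for 14 h, with the first reading used as background. Fitness is the optical density at the switch to stationary phase as a fraction of the robust mean of no-drug control wells, capped at 1.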
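Throughout, for Bliss interaction score (quartile over a dose matrix): first quartile when negative (synergy) and third quartile when positive (antagonism).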

`CCC[C@@H]1C[C@@H](C(=O)N[C@@H]([C@H]2O[C@H](SC)[C@H](O)[C@@H](O)[C@H]2O)[C@@H](C)O)N(C)C1` [Lincomycin] + CO[C@H]1/C=C/O[C@@]2(C)Oc3c(C)c(O)c4c(O)c(c(/C=N/N5CCN(C)CC5)c(O)c4c3C2=O)NC(=O)/C(C)=C\C=C\[C@H](C)[C@H](O)[C@@H](C)[C@@H](O)[C@@H](C)[C@H](OC(C)=O)[C@@H]1C [Rifampicin] showed a Bliss interaction score (S. aureus DSM 20231) of -0.0747, a Bliss interaction score (B. subtilis 168) of -0.0988 and a Bliss interaction score (S. aureus Newman) of 0.0333. It also gave a Bliss interaction score (S. pneumoniae D39V [1]) of -0.136, a fitness (S. pneumoniae D39V [2]; first compound 0.2 µg/mL, partner 0.025 µg/mL, one replicate) of 0.137 and a fitness (S. pneumoniae D39V [2]; first compound 0.2 µg/mL, partner 0.1 µg/mL) of 0.076. It also gave a fitness (S. pneumoniae D39V [2]; first compound 0.2 µg/mL, partner 0.2 µg/mL, one replicate) of 0, a fitness (S. pneumoniae D39V [2]; first compound 0.215 µg/mL, partner 0.2 µg/mL) of 0.26 and a fitness (S. pneumoniae D39V [2]; first compound 0.4 µg/mL, partner 0.025 µg/mL, one replicate) of 0.0822. For the same compound, the fitness (S. pneumoniae D39V [2]; first compound 0.4 µg/mL, partner 0.05 µg/mL) was 0.0846, the fitness (S. pneumoniae D39V [2]; first compound 0.4 µg/mL, partner 0.1 µg/mL) was 0.0641 and the fitness (S. pneumoniae D39V [2]; first compound 0.4 µg/mL, partner 0.2 µg/mL, one replicate) was 0. The fitness (S. pneumoniae D39V [2]; first compound 0.43 µg/mL, partner 0.2 µg/mL) was 0.221, the fitness (S. pneumoniae D39V [2]; first compound 0.8 µg/mL, partner 0.025 µg/mL, one replicate) was 0.0813 and the fitness (S. pneumoniae D39V [2]; first compound 0.8 µg/mL, partner 0.05 µg/mL) was 0.0947. The fitness (S. pneumoniae D39V [2]; first compound 0.8 µg/mL, partner 0.1 µg/mL) was 0.0864, the fitness (S. pneumoniae D39V [2]; first compound 0.8 µg/mL, partner 0.2 µg/mL, one replicate) was 0 and the fitness (S. pneumoniae D39V [2]; first compound 0.86 µg/mL, partner 0.05 µg/mL) was 0.185. It also gave a fitness (S. pneumoniae D39V [2]; first compound 0.86 µg/mL, partner 0.1 µg/mL) of 0.147 and a fitness (S. pneumoniae D39V [2]; first compound 0.86 µg/mL, partner 0.2 µg/mL) of 0.131.

In the case of `CCC[C@@H]1C[C@@H](C(=O)N[C@@H]([C@H]2O[C@H](SC)[C@H](O)[C@@H](O)[C@H]2O)[C@@H](C)O)N(C)C1` [Lincomycin] + Clc1ccc(COC(Cn2ccnc2)c2ccc(Cl)cc2Cl)c(Cl)c1 [Miconazole], the Bliss interaction score (S. aureus DSM 20231) is reported as 0.0484, the Bliss interaction score (B. subtilis 168) is reported as 0.0378 and the Bliss interaction score (S. aureus Newman) is reported as 0.0538. The Bliss interaction score (S. pneumoniae D39V [1]) was 0.117, the fitness (S. pneumoniae D39V [2]; first compound 0.2 µg/mL, partner 1.073 µg/mL) was 0.824 and the fitness (S. pneumoniae D39V [2]; first compound 0.2 µg/mL, partner 2.145 µg/mL) was 0.874. The fitness (S. pneumoniae D39V [2]; first compound 0.2 µg/mL, partner 4.29 µg/mL) was 0.807, the fitness (S. pneumoniae D39V [2]; first compound 0.215 µg/mL, partner 1.25 µg/mL) was 0.808 and the fitness (S. pneumoniae D39V [2]; first compound 0.215 µg/mL, partner 2.5 µg/mL) was 0.782. For the same compound, the fitness (S. pneumoniae D39V [2]; first compound 0.215 µg/mL, partner 5 µg/mL) was 0.81, the fitness (S. pneumoniae D39V [2]; first compound 0.4 µg/mL, partner 1.073 µg/mL) was 0.716 and the fitness (S. pneumoniae D39V [2]; first compound 0.4 µg/mL, partner 2.145 µg/mL) was 0.683. The fitness (S. pneumoniae D39V [2]; first compound 0.4 µg/mL, partner 4.29 µg/mL) was 0.544, the fitness (S. pneumoniae D39V [2]; first compound 0.43 µg/mL, partner 1.25 µg/mL) was 0.71 and the fitness (S. pneumoniae D39V [2]; first compound 0.43 µg/mL, partner 2.5 µg/mL) was 0.682. The fitness (S. pneumoniae D39V [2]; first compound 0.43 µg/mL, partner 5 µg/mL) was 0.689, the fitness (S. pneumoniae D39V [2]; first compound 0.8 µg/mL, partner 4.29 µg/mL) was 0.275 and the fitness (S. pneumoniae D39V [2]; first compound 0.86 µg/mL, partner 1.25 µg/mL) was 0.264. The fitness (S. pneumoniae D39V [2]; first compound 0.86 µg/mL, partner 2.5 µg/mL) was 0.308 and the fitness (S. pneumoniae D39V [2]; first compound 0.86 µg/mL, partner 5 µg/mL) was 0.377.

`CCC[C@@H]1C[C@@H](C(=O)N[C@@H]([C@H]2O[C@H](SC)[C@H](O)[C@@H](O)[C@H]2O)[C@@H](C)O)N(C)C1` [Lincomycin] + O=C1CN(/N=C/c2ccc([N+](=O)[O-])o2)C(=O)N1 [Nitrofurantoin] gave a Bliss interaction score (S. aureus DSM 20231) of -0.0943, a Bliss interaction score (B. subtilis 168) of 0.163 and a Bliss interaction score (S. aureus Newman) of -0.101. The Bliss interaction score (S. pneumoniae D39V [1]) was -0.118, the fitness (S. pneumoniae D39V [2]; first compound 0.2 µg/mL, partner 1.285 µg/mL) was 0.718 and the fitness (S. pneumoniae D39V [2]; first compound 0.2 µg/mL, partner 2.57 µg/mL) was 0.775. For the same compound, the fitness (S. pneumoniae D39V [2]; first compound 0.2 µg/mL, partner 5.14 µg/mL, one replicate) was 0.768, the fitness (S. pneumoniae D39V [2]; first compound 0.215 µg/mL, partner 2 µg/mL) was 0.753 and the fitness (S. pneumoniae D39V [2]; first compound 0.215 µg/mL, partner 4 µg/mL) was 0.763. It also gave a fitness (S. pneumoniae D39V [2]; first compound 0.215 µg/mL, partner 8 µg/mL) of 0.711, a fitness (S. pneumoniae D39V [2]; first compound 0.4 µg/mL, partner 1.285 µg/mL) of 0.677 and a fitness (S. pneumoniae D39V [2]; first compound 0.4 µg/mL, partner 2.57 µg/mL) of 0.716. It also gave a fitness (S. pneumoniae D39V [2]; first compound 0.4 µg/mL, partner 5.14 µg/mL, one replicate) of 0.633, a fitness (S. pneumoniae D39V [2]; first compound 0.43 µg/mL, partner 2 µg/mL) of 0.681 and a fitness (S. pneumoniae D39V [2]; first compound 0.43 µg/mL, partner 4 µg/mL) of 0.7. The fitness (S. pneumoniae D39V [2]; first compound 0.43 µg/mL, partner 8 µg/mL) was 0.381, the fitness (S. pneumoniae D39V [2]; first compound 0.8 µg/mL, partner 1.285 µg/mL) was 0.281 and the fitness (S. pneumoniae D39V [2]; first compound 0.8 µg/mL, partner 2.57 µg/mL) was 0.266. It also gave a fitness (S. pneumoniae D39V [2]; first compound 0.8 µg/mL, partner 5.14 µg/mL, one replicate) of 0.189, a fitness (S. pneumoniae D39V [2]; first compound 0.86 µg/mL, partner 2 µg/mL) of 0.392 and a fitness (S. pneumoniae D39V [2]; first compound 0.86 µg/mL, partner 4 µg/mL) of 0.358. For the same compound, the fitness (S. pneumoniae D39V [2]; first compound 0.86 µg/mL, partner 8 µg/mL) was 0.141.
